The source of these data is patent US5750562A (priority 1995, dated 1998).

A word on the IC50: it is the midpoint of a concentration-inhibition curve.

One series deals with MCF7 (human breast). The experiment in a line: Cytotoxicity, MCF7 (human breast). Type of series: cell-based. The note with it: exposition time 72 h, RPMI 1640 + 20 mM HEPES + 2 mM L-glutamine. Here is the method:
(§1) IC50 s of compounds 10, 11and paclitaxel on 6 human
(§2) Standard conditions: basal medium RPMI 1640 + 20 mM HEPES + 2 mM

In another series the test system is tumours. Description: Anti-tumoral activity (general statement). To be noted: in words, among the compounds of formula 1.
A further series deals with A121 (human ovarian). Description: Cytotoxicity, A121 (human ovarian). Type of series: cell-based. To be noted: exposition time 72 h, RPMI 1640 + 20 mM HEPES + 2 mM L-glutamine. Here is the method: as §1, §2
For a further series, the system named is A549 (human NSCLC). Description: Cytotoxicity, A549 (human NSCLC). Type of series: cell-based. To be noted: exposition time 72 h, RPMI 1640 + 20 mM HEPES + 2 mM L-glutamine. Here is the method:
as §1, §2

The test system of the next series is HT-29 (human colon). The experiment in a line: Cytotoxicity, HT-29 (human colon). Type of series: cell-based. To be noted: exposition time 72 h, RPMI 1640 + 20 mM HEPES + 2 mM L-glutamine. The procedure:
as §1, §2

Another series concerns L1210 (murine leukemia). The experiment in a line: Cytotoxicity, L1210 (murine leukemia). Type of series: cell-based. The note with it: Mus musculus, exposition time 48 h, RPMI 1640 + 20 mM HEPES + 2 mM L-glutamine.
A further series is described as follows: Cardiotoxic activity. To be noted: in words, compared with taxol and its known derivatives.
In another series the test system is human tumours. The note with it: background art, cited from earlier work.
For the next series, the system named is MCF7-ADR (resistant). The experiment in a line: cells. Type of series: cell-based. The note with it: Homo sapiens, NCI/ADR-RES, 72 h.

As to `CC(=O)O[C@@]12CO[C@@H]1C[C@H](O)[C@@]1(C)C(=O)C(=O)C3=C(C)[C@@H](OC(=O)[C@H](O)[C@H](CC(C)C)NC(=O)OC(C)(C)C)C[C@@](O)([C@@H](OC(=O)c4ccccc4)[C@H]21)C3(C)C` [Compound 10, 13-[(2R,3S)-3-ter-butoxycarbonylamino-2-hydroxy3-isobutyl-propanoyl]-10-deacetyl-10-dehydro-baccatine III], the concentration for half-maximal inhibition (IC50) in the series with MCF7 (human breast) amounted to 1.2 ± 0.2 nM; in the series on A121 (human ovarian) it was 0.8 ± 0.3 nM; in the series with A549 (human NSCLC), 1.9 ± 0.3 nM; in the series on HT-29 (human colon) it was 0.4 ± 0.1 nM; with L1210 (murine leukemia) it was 0.6 ± 0.1 nM. Further, in the series on tumours, the activity entry was “particularly active”.
Consider `CC(=O)O[C@H]1C(=O)[C@@]2(C)[C@H]([C@H](OC(=O)c3ccccc3)[C@]3(O)C[C@H](OC(=O)[C@H](O)[C@@H](NC(=O)c4ccccc4)c4ccccc4)C(C)=C1C3(C)C)[C@]1(OC(C)=O)CO[C@@H]1C[C@@H]2O` [Paclitaxel, reference compound], for which the cardiotoxic activity entry in the series “Cardiotoxic activity” is “contrary to taxol”. Moreover, the anticancerogenic activity result in the series on human tumours (different forms of human tumours) is recorded as “anticancerogenic activity on different forms of human tumours”. Moreover, in the series with human tumours, the resistance induction entry is given as “induces resistance quickly”. For the same molecule, in the series on human tumours, the “side-effects in clinical use” value was “serious side-effects”. For the same molecule, the IC50 in the series with MCF7 (human breast) worked out at 4.3 ± 0.1 nM; in the series with A121 (human ovarian), 3.7 ± 0.3 nM; with A549 (human NSCLC), 5.4 ± 0.5 nM; in the series with MCF7-ADR (resistant), 395 ± 8.7 nM; with HT-29 (human colon), 6 ± 0.6 nM; with L1210 (murine leukemia), 7 ± 3 nM.
`CC(=O)O[C@@]12CO[C@@H]1C[C@H](O)[C@@]1(C)C(=O)C(=O)C3=C(C)[C@@H](OC(=O)[C@H](O)[C@H](CC(C)C)NC(=O)OC(C)(C)C)[C@@H]4OC(=O)O[C@]4([C@@H](OC(=O)c4ccccc4)[C@H]21)C3(C)C` [Compound 11, 13=[(2R,3S)-3-ter-butoxycarbonylamino-2-hydroxy-3-isobutyl-propanoyl]-10-dehydro-10-deacetyl-14β-hydroxy-baccatine III 1,14-carbonate]: the concentration for half-maximal inhibition (IC50) with MCF7 (human breast) is 0.8 ± 0.2 nM; with A121 (human ovarian), 1.6 ± 0.2 nM; with A549 (human NSCLC), 2.1 ± 0.3 nM; in the series on HT-29 (human colon), 0.6 ± 0.4 nM; in the series with L1210 (murine leukemia), 2 ± 0.1 nM. Further, the activity result in the series with tumours is on record as “particularly active”.
In the case of `CCCCCC(=O)N[C@@H](CC(C)C)[C@@H](O)C(=O)O[C@@H]1C(C)=C2C(=O)C(=O)[C@@]3(C)[C@H]([C@H](OC(=O)c4ccccc4)[C@@]4(OC(=O)O[C@@H]14)C2(C)C)[C@]1(OC(C)=O)CO[C@@H]1C[C@@H]3O` [Compound 12, 13-[(2R,3S)-3-caproylamino-2-hydroxy-3-isobutyl-propanoyl]-10-dehydro-10-deacetyl 14β-hydroxy-baccatine III 1,14-carbonate], the activity entry in the series on tumours is “particularly active”.
